Data as given in patent publication US20160106102A1, “KNOWN AND NEW HETEROCYCLIC COMPOUNDS AS PEST CONTROL AGENTS” (BAYER CROPSCIENCE AKTIENGESELLSCHAFT, priority 2013, published 2016).

assay: log P determination by LC-MS in the acidic range; assay type: physicochemical; conditions: Table 2, compounds of the formula (I-2); acidic range pH 2.7 or pH 2.3
Text: The LC-MS determination in the acidic range is effected at pH 2.7 using 0.1% aqueous formic acid and acetonitrile (contains 0.1% formic acid) as eluents, linear gradient from 10% acetonitrile to 95% acetonitrile. Alternatively, the determination is effected in the acidic range at pH 2.3 using 0.1% aqueous phosphoric acid and acetonitrile as eluents; linear gradient from 10% acetonitrile to 95% acetonitrile.

log P (acid)	Structure (SMILES)
0.98	O=C(Nc1ncn(-c2ccccc2)n1)c1cccnc1 [Compound I-2-5]
1.39	O=C(Nc1ncn(Cc2c(Cl)cccc2Cl)n1)c1cccnc1 [Compound I-2-8]
0.47	CN(C)C(=O)n1cnc(NC(=O)c2cccnc2)n1 [Compound I-2-9]
1.41	CCOc1nc(OCC)nc(-n2cnc(NC(=O)c3cccnc3)n2)n1 [Compound I-2-10]
0.70	COc1ccnc(-n2cnc(NC(=O)c3cccnc3)n2)n1 [Compound I-2-11]
0.71	CCn1nc(NC(=O)c2cccnc2)nc1SC [Compound I-2-12]
1.36	O=C(Nc1ncn(Cc2ccc(Cl)cc2)n1)c1cccnc1 [Compound I-2-13]
0.67	O=C(Nc1ncn(-c2ncccc2Br)n1)c1cccnc1 [Compound I-2-15]
0.44	Cc1nc(NC(=O)c2cccnc2)nn1C(C)C [Compound I-2-20]
0.29	CCCn1cnc(NC(=O)c2cccnc2)n1 [Compound I-2-21]
1.11	COc1cc(OC)nc(-n2cnc(NC(=O)c3cccnc3)n2)n1 [Compound I-2-24]
1.07	Cc1nc(-n2cnc(NC(=O)c3cccnc3)n2)nc(C)c1C [Compound I-2-25]
1.58	O=C(Nc1nc(Cl)n(-c2ccccc2)n1)c1cccnc1 [Compound I-2-27]
1.23	COc1nc(NC(=O)c2cccnc2)nn1-c1ccccc1 [Compound I-2-28]

same assay, conditions: Table 3; HPLC on reversed-phase column (C 18), 55° C., acidic range (pH 2.7 or pH 2.3)

log P (acid)	Structure (SMILES)
2.09	O=C(Nc1nn(-c2ccccc2)nc1Br)c1cccnc1 [Compound I-3-3]
2.43	O=C(Nc1cnn(-c2ccc(Cl)cc2)n1)c1cccnc1 [Compound I-3-4]
2.97	O=C(Nc1nn(-c2ccc(Cl)cc2Cl)nc1C(F)(F)F)c1cccnc1 [Compound I-3-8]
1.82	Cc1nn(-c2ccccc2)nc1NC(=O)c1cccnc1 [Compound I-3-11]
2.44	O=C(Nc1nn(-c2ccccc2)nc1C(F)(F)F)c1cccnc1 [Compound I-3-12]
2.04	O=C(Nc1nn(-c2ccccc2Cl)nc1Cl)c1cccnc1 [Compound I-3-13]
1.83	O=C(Nc1cnn(-c2ncc(Cl)cc2Cl)n1)c1cccnc1 [Compound I-3-15]
1.74	Cc1nn(-c2ncc(Cl)cc2Cl)nc1NC(=O)c1cccnc1 [Compound I-3-17]
2.58	Cc1nn(-c2cccc(C(F)(F)F)c2)nc1NC(=O)c1cccnc1 [Compound I-3-18]
2.24	Cc1nn(-c2ccc(Cl)cc2Cl)nc1NC(=O)c1cccnc1 [Compound I-3-19]
2.93	O=C(Nc1nn(-c2ccc(Cl)cc2)nc1C(F)(F)F)c1cccnc1 [Compound I-3-20]
1.51	O=C(Nc1nn(-c2ncccc2Cl)nc1Cl)c1cccnc1 [Compound I-3-21]
2.26	Cc1nn(-c2cc(Cl)ccc2Cl)nc1NC(=O)c1cccnc1 [Compound I-3-22]
1.71	Cc1nn(-c2ccccc2Cl)nc1NC(=O)c1cccnc1 [Compound I-3-23]
1.67	O=C(Nc1cnn(-c2c(F)cccc2F)n1)c1cccnc1 [Compound I-3-24]

same assay, conditions: Table 4; HPLC on reversed-phase column (C 18), 55° C., acidic range (pH 2.7 or pH 2.3)

log P (acid)	Structure (SMILES)
1.35	COc1cc(OC)nc(-n2nnc(NC(=O)c3cccnc3)n2)n1 [Compound I-4-4]
0.71	CCOC(=O)Cn1nnc(NC(=O)c2cccnc2)n1 [Compound I-4-5]
1.71	O=C(Cn1nnc(NC(=O)c2cccnc2)n1)NCc1cccc2ccccc12 [Compound I-4-7]
0.76	CCCn1nnc(NC(=O)c2cccnc2)n1 [Compound I-4-9]
1.38	O=C(Nc1nnn(Cc2ccccc2)n1)c1cccnc1 [Compound I-4-10]
0.97	CCCCNC(=O)Cn1nnc(NC(=O)c2cccnc2)n1 [Compound I-4-11]

same assay, conditions: amines of the formula (II-1); acidic range pH 2.7 (0.1% formic acid/acetonitrile) or pH 2.3 (0.1% phosphoric acid/acetonitrile)

Structure (SMILES)	log P (acid)
Nc1cc(C2CC2)n(Cc2ccc(Cl)nc2)n1 [II-1-1]	1.21
Nc1cc(C2CC2)n(Cc2ccccc2)n1 [II-1-2]	1.36
Nc1ccn(Cc2ccc(Cl)nc2)n1 [II-1-3]	0.56
C#CCn1nc(N)cc1C1CC1 [II-1-4]	0.63
Cc1cc(N)nn1-c1cnccn1 [II-1-6]	0.8
Nc1ccn(C(CF)CF)n1 [II-1-7]	−0.09
Cc1cc(N)nn1Cc1cccc(OC(F)(F)F)c1 [II-1-11]	1.39
COc1cc(OC)nc(Cn2nc(N)cc2C)n1 [II-1-12]	0.81
C#CCn1nc(N)cc1CC [II-1-17]	0.46
CCc1cc(N)nn1Cc1ccc(Cl)nc1 [II-1-19]	1.11
Cc1cc(N)nn1C(F)F [II-1-27]	0.47
Cc1cc(N)nn1-c1ncccc1Cl [II-1-31]	0.79
Cc1c(Br)c(N)nn1Cc1ncccn1 [II-1-34]	0.92
Nc1cc(C(F)(F)F)n(Cc2ncccn2)n1 [II-1-35]	1.06
Nc1cc(Cl)n(Cc2ncccn2)n1 [II-1-36]	0.49
Cc1cc(N)nn1C(C)(C)C#N [II-1-37]	0.64
Cn1nc(N)cc1C(F)F [II-1-40]	0.22
N#Cc1cc(N)nn1Cc1ncccn1 [II-1-62]	0.20
Cc1cc(N)nn1C(C)C#N (centres unmarked) [II-1-64]	0.02

The remaining lines, values ahead:

log P (acid)	Structure (SMILES)
0.77	Cc1cc(N)nn1Cc1ccc(Cl)nc1 [II-1-5]
0.42	Cc1cc(C)nc(Cn2nc(N)cc2C)n1 [II-1-9]
0.19	Cc1cc(N)nn1Cc1nccs1 [II-1-10]
0.13	Cc1cc(N)nn1CCCl [II-1-13]
0.02	Cc1ccnc(Cn2nc(N)cc2C)n1 [II-1-16]
0.45	Cc1cc(N)nn1Cc1ccncc1 [II-1-18]
−0.15	C#CCn1nc(N)cc1C [II-1-20]
0.6	Cc1cc(N)nn1Cc1ncccc1Cl [II-1-24]
0.21	Cc1cc(N)nn1Cc1ncccc1C#N [II-1-25]
<−0.23	Cc1cc(N)nn1Cc1cccnc1 [II-1-28]
0.15	CCOCn1nc(N)cc1C [II-1-33]
0.55	Cc1ccn(Cn2nc(N)cc2C)n1 [II-1-38]
0.52	Cc1ccnn1Cn1nc(N)cc1C [II-1-39]
1.26	Cc1cc(N)nn1Cn1nccc1C(F)(F)F [II-1-41]
1.51	Cc1cc(N)nn1Cn1ccc(C(F)(F)F)n1 [II-1-42]
−0.23	Cc1cc(N)nn1Cn1cncn1 [II-1-43]
0.44	Cc1cc(N)nn1CN1CCS/C1=N/C#N [II-1-44]

log P (acid)	Structure (SMILES)
<−0.23	Cc1cc(N)nn1Cn1ccnn1 [II-1-45]
<−0.23	Cc1cc(N)nn1Cn1nc(C)n(C)c1=O [II-1-46]
0.72	COc1nn(Cn2nc(N)cc2C)c(=O)n1C1CC1 [II-1-47]
0.03	Cc1cc(N)nn1Cn1c(=O)n(C)c(=O)n1C [II-1-48]
0.43	Cc1cc(N)nn1Cn1nc(C)n(C2CC2)c1=O [II-1-49]
0.98	Cc1cc(N)nn1Cn1nc(C2CC2)n(C2CC2)c1=O [II-1-50]
0.49	Cc1cc(N)nn1CSc1ncccn1 [II-1-51]
0.57	CC(C)=NOCn1nc(N)cc1C [II-1-52]
1.12	Cc1cc(N)nn1CC1CC1(Cl)Cl (centres unmarked) [II-1-53]
<−0.23	Cc1cc(N)nn1Cn1c(C)nn(C)c1=O [II-1-54]
1.13	Cc1cc(N)nn1CC=C(Cl)Cl [II-1-56]
<−0.23	Cc1cc(N)nn1CN1CCCNC1=O [II-1-57]
1.39	Cc1cc(N)nn1CC(=O)Cc1ccccc1Cl [II-1-58]
0.73	CC(C)=CCn1nc(N)cc1C [II-1-59]
0.14	CSCn1nc(N)cc1C [II-1-60]
<−0.23	Cc1cc(N)nn1Cc1ncnn1C [II-1-63]

same assay, conditions: pH 2.7, amines of the formula (II-1); acidic range pH 2.7 (0.1% formic acid/acetonitrile) or pH 2.3 (0.1% phosphoric acid/acetonitrile); read-out: log P (acid)

Structure (SMILES)	chromatographic logP
Nc1ccn(Cc2ncc(C(F)(F)F)cc2Cl)n1 [II-1-8, 1-{[3-Chloro-5-(trifluoromethyl)pyridin-2-yl]methyl}-1H-pyrazole-3-amine]	1.36
Nc1cc(Br)n(Cc2ncccn2)n1 [II-1-30, 5-Bromo-1-(pyrimidin-2-ylmethyl)-1H-pyrazole-3-amine]	0.56

Next, values leading:

chromatographic logP	Structure (SMILES)
< -0.23	Cc1cc(N)nn1Cc1ncccn1 [II-1-23, 5-Methyl-1-(pyrimidin-2-ylmethyl)-1H-pyrazole-3-amine]
0.63	CCSCn1nc(N)cc1C [II-1-61, 1-[(Ethylsulphanyl)methyl]-5-methyl-1H-pyrazole-3-amine]

same assay, conditions: pH 2.7, values given in the synthesis examples and NMR lists; read-out: HPLC-MS: log P

Structure (SMILES)	chromatographic logP
Nc1ccn(Cc2ncc(C(F)(F)F)cc2Cl)n1 [II-1-8, 1-{[3-Chloro-5-(trifluoromethyl)pyridin-2-yl]methyl}-1H-pyrazole-3-amine]	1.36
Nc1cc(Br)n(Cc2ncccn2)n1 [II-1-30, 5-Bromo-1-(pyrimidin-2-ylmethyl)-1H-pyrazole-3-amine]	0.56
COC(=O)c1cc(C)n(Cc2ncccn2)n1 [Methyl 5-methyl-1-(pyrimidin-2-ylmethyl)-1H-pyrazole-3-carboxylate]	0.98
Cc1cc(N)nn1C(=O)OC(C)(C)C [tert-Butyl 3-amino-5-methyl-1H-pyrazole-1-carboxylate]	1.23
Cc1cc(NC(=O)OC(C)(C)C)nn1Cc1ncccn1 [tert-Butyl[5-methyl-1-(pyrimidin-2-ylmethyl)-1H-pyrazol-3-yl]carbamate]	1.75

More lines, now with the values ahead:

chromatographic logP	Structure (SMILES)
< -0.23	Cc1cc(N)nn1Cc1ncccn1 [II-1-23, 5-Methyl-1-(pyrimidin-2-ylmethyl)-1H-pyrazole-3-amine]
0.63	CCSCn1nc(N)cc1C [II-1-61, 1-[(Ethylsulphanyl)methyl]-5-methyl-1H-pyrazole-3-amine]
